# Measured values published in US20260315609A1, “MIXED VASOPRESSIN RECEPTOR AGONIST-ANTAGONIST FOR TREATING END-STAGE LIVER DISEASE AND COMPLICATIONS ASSOCIATED THEREOF” (FERRING B.V., priority 2022, published 2026).
# Starred links: 1 amine or outer side, 2 acyl side, 3 side chain; linkers in the order of their positions; H or OH if unused. Positions of bridges follow the written chain, without caps; N, C: chain ends. Non-standard residues stand in square brackets, D forms with d. Residues, ends and D or L forms follow the SMILES beside them. Chains are numbered I, II in the order given. *: point of attachment. isoGln = NC(=O)[C@H](CCC(=O)[*:2])N[*:1]; εLys = N[C@@H](CCCCN[*:1])C(=O)[*:2]; Dab = NCC[C@H](N)C(=O)O; PhAc = O=C(Cc1ccccc1)*
# How the values were obtained:
# [1] = Tolerability in healthy monkeys; assay type: in vivo, cynomolgus monkey; details: non-human primates
# Description: Clinical observations were made before and after dosing. IV administration
# The data reported herein were collected over 19 dosing sessions of four animals each, using a total of six monkeys. Animals were repeat dosed in a crossover design with at least one animal receiving vehicle for each round; the animal receiving vehicle was varied between rounds. A 48- to 72-h washout period was used between dosing sessions. Animals were observed by camera for ~1 h before dosing (covering the baseline period) and up to 3 h after dosing.
# skin blood flow (SBF) = test: Skin blood flow (SBF), laser Doppler, anesthetized Wistar rats, IV infusion; assay type: in vivo, rat
# Description: This study was performed over multiple experiments using a total of 48 adult male Wistar rats. […] Compounds were infused via an IV catheter at six sequentially increasing doses.
# On the day of experimentation animals were anesthetized and instrumented. A tracheostomy was performed to allow assisted respiration and three catheters were placed. Laser Doppler probes were positioned on a shaved portion of the animal's lower abdominal skin for blood-flow measurements. Ventilation was initiated, and baseline readings for the primary parameter of skin blood flow (SBF) were recorded. Readings for the secondary parameters were also recorded: (1) blood lactate concentration, (2) mean arterial pressure (MAP), and (3) blood pH. Data collection was performed continuously for SBF and MAP using NOTOCORD-hem™ (Instem), and blood samples were taken at each compound dose and immediately analyzed using an i-STAT® meter.
# After the final dose administration, animals were euthanized and a final SBF measurement was recorded to detect any signal from the flow probe after the animal's heart stopped beating to control for a signal not attributed to blood flow. Animal body temperature, pulse, and ventilation adequacy were monitored throughout the procedure.
# [2] = test system: CCl4-induced rat model of cirrhosis and ascites; test: CCl4-induced cirrhosis and ascites rats, cohort 1 (SC bolus b.i.d. 3 days), renal excretory function; assay type: in vivo
# Description: (§1) Animals: 90 male Wistar rats (Charles River Laboratories, Espana S.A) weighing 200-220 grams at the time of receipt were subjected to a cirrhosis induction program; high dose CCl4 was administered by inhalation twice weekly (Monday and Friday) and phenobarbital (0.3 g/L) was added to drinking water. In some instances, liver damage in this model is caused by hepatotoxic CCl4 metabolites produced in the liver. In some instances, phenobarbital induction of the microsomal enzyme oxidizing system exaggerates the intensity of the hepatic necrosis. The data was collected from the treatment of 44 cirrhotic rats with ascites. Animals were allowed free access to food and water throughout the study.
# (§2) The study consisted of 3 treatment cohorts, as detailed in Table 10. Animals developing and maintaining ascites for 2 weeks were randomly assigned to treatment groups. Ringer Braun saline solution was used as vehicle. IV bolus were administered via femoral veins.
# This study was performed at the Hospital Clinic (Barcelona, Spain). Measurements and/or samples were collected for additional experimental parameters (e.g., water intake, urine osmolality, serum samples, tissue samples, etc.) but data are not reported.
# Cohort 1: Animals were placed into metabolic cages for continuous urine collection and administered 100 μg/kg FE 204205 or vehicle by SC bolus for 3 days (see Table 3 for details). Measurements of body weight, urine volume, and urine sodium content were taken prior to treatment (Day 0) and daily over the course of treatment administration. After 3 days of treatment, the volume of ascites was measured by aspiration and the animals were sacrificed by isofluorane overdose.
# hV1b receptor = target: T1, hV1b receptor (Homo sapiens, UniProt P47901); test: Luciferase reporter gene assay, human V1b; details: read-out: % MPE
# T1 sequence (P47901 1-424): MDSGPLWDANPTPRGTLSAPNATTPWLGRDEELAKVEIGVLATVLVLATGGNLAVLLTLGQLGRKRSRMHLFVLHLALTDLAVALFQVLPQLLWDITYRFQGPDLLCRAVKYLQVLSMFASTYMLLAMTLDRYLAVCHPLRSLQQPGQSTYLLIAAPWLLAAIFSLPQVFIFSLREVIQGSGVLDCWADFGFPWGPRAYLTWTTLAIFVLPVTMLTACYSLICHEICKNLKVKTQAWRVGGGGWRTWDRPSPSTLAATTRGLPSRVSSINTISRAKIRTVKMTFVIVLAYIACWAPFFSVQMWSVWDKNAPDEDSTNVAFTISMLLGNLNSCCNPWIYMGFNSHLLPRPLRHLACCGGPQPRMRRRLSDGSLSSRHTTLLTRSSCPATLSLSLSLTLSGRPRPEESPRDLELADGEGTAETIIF
# Description: Cell Lines. Studies were conducted with cell lines expressing rat (r) or human (h) Via, V1b, V2, or OT receptors. For the experiments with human receptors, human embryonic kidney (HEK)-flp-in cells stably expressing the lacZ-Zeocin™ fusion gene were used for expression of hV1a and hV1b. These cells were designed for use with the Flp-In™ expression vector containing the gene of interest (here hV1a or hV1b) and the Flp recombinase expression plasmid, pOG44. For hV2 and hOTR, HEK-293 cells transiently expressing hV2 were used.
# Cell Maintenance. […]
# Functional Cell-Based Assays. To detect activity generated by binding of the test compounds to endogenous rV1a receptors or the stably expressed hV1a receptors, Fluorometric Imaging Plate Reader (FL1PR) calcium assays were performed. Briefly, real-time fluorescence of an intracellular calcium-sensitive dye was measured immediately upon addition of the test compound at various concentrations. […] Expression of the luciferase gene was determined after 5-h incubation with various concentrations of test compound. […] For V1a receptor response, area under the curve of the real-time calcium traces, expressed as relative fluorescence units, was determined. […]
# blood lactate = test: Blood lactate in cynomolgus monkeys after SC Compound 1; assay type: in vivo, cynomolgus monkey; details: 15-360 min
# Description: Blood samples (0.5 mL in EDTA) were collected from a femoral or saphenous vein before dosing and at multiple times continuing out to 480 min after administration. Lactate concentration was also measured as part of PD analysis and collected as EDTA whole blood from the pre-dose, 15-, 40-, 90-, 180-, and 360-min post-administration samples immediately after collection using a Lactate Plus (Nova Biomedical) meter. For blood sample analysis, plasma was prepared from whole blood. Subsequent bioanalysis included compound extraction followed by standard LC/MS methods to determine compound concentration in each sample.
# [3] = test system: CCl4-induced rat model of cirrhosis and ascites; test: CCl4-induced cirrhosis and ascites rats, cohort 2 (single IV bolus), renal excretory function; assay type: in vivo; details: 100 μg/kg IV
# Description: as §1, §2
# Cohort 2: Animals were anesthetized and the left femoral artery and vein catheterized. Bladders were exposed by suprapubic incision and catheterized for urine collection. A priming dose of PAH (4 mg/animal) was administered via the jugular vein followed by a constant infusion (2 mL/hr) of Ringer solution containing 4 mg/mL PAH. After 30 minutes of infusion, a baseline 30 minute urine collection was obtained for urine volume, urine sodium content, urine creatinine content, and PAH measurements. In the middle of the 30 minute urine collection, a blood sample (0.8 mL) was obtained via the femoral artery catheter for PAH and creatinine measurements. […] Five 30 minute urine collections were performed over 150 minutes, with blood samples collected in the middle of each 30 minute urine collection. Following blood sampling, packed cells were reconstituted with Ringer solution and reinjected over a period of 3 minutes.
smiles,measurement,setting,value
"CC[C@H](C)[C@@H]1NC(=O)[C@H](Cc2ccccc2)NC(=O)[C@@H](N)CSSC[C@@H](C(=O)N2CCC[C@H]2C(=O)N[C@@H](CCNC(=O)[C@@H](N)CCCCNC(=O)[C@H](CCCCNC(C)=O)NC(=O)CC[C@H](NC(=O)[C@H](CCCNC(=N)N)NC(=O)[C@@H]2CCCN2C(=O)[C@H](C)NC(=O)[C@H](CC(N)=O)NC(=O)[C@H](CCC(N)=O)NC(=O)[C@H](Cc2ccccc2)NC(=O)[C@@H](Cc2ccc(OC)cc2)NC(=O)Cc2ccccc2)C(N)=O)C(=O)NCC(N)=O)NC(=O)[C@H](CC(N)=O)NC(=O)[C@H](CCC(N)=O)NC1=O [Compound 1, Glycinamide, L-cysteinyl-L-phenylalanyl-L-isoleucyl-L-glutaminyl-L-asparaginyl-L-cysteinyl-L-prolyl-N4-(phenylacetyl-O-methyl-D-tyrosyl-L-phenylalanyl-L-glutaminyl-L-asparaginyl-L-alanyl-L-prolyl-L-arginyl-L-isoglutamyl-N5-acetyl-L-lysyl-L-ε-lysyl)-L-2,4-diaminobutyryl-, cyclic (1→6)-disulfide] (I: H-CFIQNCP[Dab]G-NH2 / II: PhAc-[dY](Me)FQNAPR[isoGln]K(Ac)[εLys]; disulfide I:1-I:6; amide I:8-II:C)",effect on body temperature,[1],no apparent Compound 1-related effect on body temperature
same,tolerability,[1]; single-dose SC and IV bolus,well tolerated
same,SBF ED50,skin blood flow (SBF),25.2 pmol/kg/min
same,SBF Emax,skin blood flow (SBF),38.6%
same,greatest percent change from baseline in skin flow,skin blood flow (SBF),−42.1%
same,Ascites Volume,"[2]; 100 μg/kg SC b.i.d., after 3 days (vehicle 18.6)",6.0 mL
same,Body Weight,"[2]; 100 μg/kg SC b.i.d., basal",461 grs
same,Sodium Excretion,"[2]; 100 μg/kg SC b.i.d., basal",0.6 mEq/day
same,Urine Volume,"[2]; 100 μg/kg SC b.i.d., basal",9.7 mL/day
same,Body Weight,"[2]; 100 μg/kg SC b.i.d., day 1",402 grs
same,Sodium Excretion,"[2]; 100 μg/kg SC b.i.d., day 1",8.2 mEq/day
same,Urine Volume,"[2]; 100 μg/kg SC b.i.d., day 1",51.6 mL/day
same,Body Weight,"[2]; 100 μg/kg SC b.i.d., day 2",397 grs
same,Sodium Excretion,"[2]; 100 μg/kg SC b.i.d., day 2",1.1 mEq/day
same,Urine Volume,"[2]; 100 μg/kg SC b.i.d., day 2",21.8 mL/day
same,Body Weight,"[2]; 100 μg/kg SC b.i.d., day 3",396 grs
same,Sodium Excretion,"[2]; 100 μg/kg SC b.i.d., day 3",0.3 mEq/day
same,Urine Volume,"[2]; 100 μg/kg SC b.i.d., day 3",16.6 mL/day
same,effect on ascites,"[2]; SC, three days",fully evacuated the ascites accumulated in the peritoneal cavity or markedly diminished ascites volume
same,Emax,hV1b receptor,72%
same,blood lactate versus pre-dose,blood lactate,not notably increased
same,Sodium Excretion,[3]; 0 min,0.4 μEq/min
same,Urine Volume,[3]; 0 min,8.4 µL/min
same,Sodium Excretion,[3]; 30 min,1.1 μEq/min
same,Urine Volume,[3]; 30 min,16.4 µL/min
same,Sodium Excretion,[3]; 60 min,4.1 μEq/min
same,Urine Volume,[3]; 60 min,26.5 µL/min
same,Sodium Excretion,[3]; 90 min,5.3 μEq/min
same,Urine Volume,[3]; 90 min,26.2 µL/min
same,Sodium Excretion,[3]; 120 min,7.0 μEq/min
same,Urine Volume,[3]; 120 min,32.3 µL/min
same,Sodium Excretion,[3]; 150 min,7.2 μEq/min
same,Urine Volume,[3]; 150 min,32.7 µL/min
